Experimental data reported in patent publication US9675697B2 (THE REGENTS OF THE UNIVERSITY OF MICHIGAN, priority 2013, dated 2017).
Read-outs that look alike come from different tables or passages of the source.

What was measured:
BRD4 BD2 [1] = biological target: T1, BRD4 BD2 (Homo sapiens (Human), UniProt O60885); assay: FP competitive binding assay using Cpd. No. 350 as the probe
[2] = test system: leukemia MOLM-13 cell line; assay: 4-day cell viability assay, CellTiter-Glo; assay type: cell-based; conditions: 4 days, read-out: Cell Growth Inhibition (IC50 (nM)) MOLM-13 Cell Line (CellTiter-Glo assay)
Experimental: (§1) The effect of representative BET bromodomain inhibitors on cell viability was determined in a 4-day proliferation assay. Cells were maintained in the appropriate culture medium with 10% FBS at 37° C. and an atmosphere of 5% CO2. All the cell lines were used within three months of thawing fresh vials.
(§2) Cells were seeded in 96-well flat bottom (Corning COSTAR, Corning, N.Y., cat#3595) or white opaque cell culture plates (BD Falcon, cat#353296) at a density of 3,000-10,000 cells/well in 75 μl of culture medium. Compounds were serially diluted in the appropriate medium, and 75 μl of the diluted compounds were added to the appropriate wells of the cell plate. After the addition of compounds, the cells were incubated at 37° C. in an atmosphere of 5% CO2 for 4 days. Cell viability was determined using the CellTiter-Glo® Luminescent Cell Viability Assay Kit (Promega, Madison, Wis.) for MOLM-13 cells and WST (2-(2-methoxy-4-nitrophenyl)-3-(4-nitrophenyl)-5-(2,4-disulfophenyl)-2H-tetrazolium, monosodium salt) Cell Counting-8 Kit (Dojindo Molecular Technologies, Inc., Rockville, Md.) for MDA-MB-436 cells according to the manufacturers' instructions.
For the CellTiter-Glo assay, 100 μl of CellTiter-Glo® Reagent was added to each well, and then the plates were incubated at room temperature for 10-20 minutes. The luminescent signal was measured using a Tecan Infinite M1000 multimode microplate reader (Tecan, Morrisville, N.C.). The readings were normalized to the DMSO-treated cells and the IC50 was calculated by nonlinear regression (four parameters sigmoid fitted with variable slope, least squares fit, and no constraint) analysis using the GraphPad Prism 5 software.

BRD3 BD1 [3] = biological target: T2, BRD3 BD1 (Homo sapiens (Human), UniProt Q15059); assay: OctetRED biolayer interferometry (BLI) binding assay
Experimental: (§3) Binding affinities of synthesized compounds to BRD2 BD1 and BD2, BRD3 BD1 and BD2, and BRD4 BD1 and BD2 were also determined by a label free binding assay using the OctetRED label free biolayer interferometry (BLI) binding assay.
(§4) BLI measures interference pattern changes of light reflected from an optical layer and a biolayer containing protein targets only or complexed with interacting partners. The assay principle is similar to the surface plasmon resonance (SPR) assay in which the target protein is immobilized on an optical surface and then exposed to potential binding partners in solution. The interaction between the binding partner and the immobilized protein changes the optical properties of the biosensors, resulting in the wavelength shift of reflecting light which will change the interference pattern. Association and dissociation rates can be obtained by fitting the real time wavelength shift of the based on a proper binding model, from which KD values can be obtained thereafter.
(§5) Biotin labeled BRD proteins (10 μg/ml) in kinetic assay buffer (PBS, pH 7.4, 0.1% BSA and 0.01% Tween-20) were immobilized on Super Streptavidin (SSA) sensors for 15 minutes followed by washing in kinetic buffer for 10 minutes to eliminate any loose non-specific immobilization. […] These protein coated sensors were then immersed into the testing compound solutions, starting from the one with the lowest concentration, where compound association occurs and then returned to the fresh buffer for the dissociation. The same operation was repeated for the next solution with higher concentration up to the one with the highest concentration. […] For each kinetic cycle, kinetic curves for association and dissociation were obtained from raw sensorgrams by using the double reference subtraction protocol included in the analysis program (Data Analysis 7.0) provided by the manufacturer, in which nonspecific interaction and buffer drift were both corrected. The association and dissociation rate constants (kon and koff) were determined using the global fitting protocol in the analysis program based on a reversible 1:1 binding model. The equilibrium association constant (KA) was calculated thereafter. All binding data were collected at 30 degree. Assay plates were kept being shaken at 1000 RPM in the whole experiment time period to avoid mass transport effect.

BRD4 BD2 [4] = biological target: T1, BRD4 BD2; assay: as above
Experimental: as §3, §4, §5

BRD4 BD1 [5] = biological target: T3, BRD4 BD1 (Homo sapiens (Human), UniProt O60885); assay: as above
Experimental: as §3, §4, §5

BRD2 BD2 [6] = biological target: T4, BRD2 BD2 (Homo sapiens (Human), UniProt P25440); assay: as above
Experimental: as §3, §4, §5

BRD3 BD2 [7] = biological target: T5, BRD3 BD2 (Homo sapiens (Human), UniProt Q15059); assay: as above
Experimental: as §3, §4, §5

BRD2 BD1 [8] = biological target: T6, BRD2 BD1 (Homo sapiens (Human), UniProt P25440); assay: as above
Experimental: as §3, §4, §5

BRD2 BD1 [9] = biological target: T6, BRD2 BD1; assay: FP competitive binding assay using Cpd. No. 350 as the probe
Experimental: (§8) Fluorescence Polarization (FP) competitive binding studies (see above) were carried out using the FAM labeled fluorescent probe Cpd. No. 350 to determine binding affinities of representative compounds to both BD1 and BD2 of BRD2, BRD3, and BRD4 proteins. Equilibrium dissociation constants (Id) values of Cpd. No. 350 to these six proteins were determined from protein saturation experiments by monitoring the total fluorescence polarization of mixtures composed with the fluorescent probe at a fixed concentration and proteins with increasing concentrations up to full saturation. Serial dilutions of testing protein were mixed with Cpd. No. 350 to a final volume of 200 μl in the assay buffer. […] Plates were incubated at room temperature for 30 minutes with gentle shaking to assure equilibrium. […] Kd values of Cpd.
(§9) The IC50 and Ki values of compounds were determined in a competitive binding experiment as described above. […] FP values were measured as described above. IC50 values were determined by nonlinear regression fitting of the competition curves.

MV4;11 = assay: Cell growth inhibition in leukemia cell line; assay type: cell-based
BRD4 BD1 [10] = biological target: T3, BRD4 BD1; assay: FP competitive binding assay using Cpd. No. 350 as the probe
Experimental: as §8, §9

BRD2 BD2 [11] = biological target: T4, BRD2 BD2; assay: as above
K562 = assay: Cell growth inhibition in leukemia cell line; assay type: cell-based; conditions: Homo sapiens
AML-2 = assay: Cell growth inhibition in leukemia cell line; assay type: cell-based
Experimental: as §1, §2

prostate VCaP cell line = assay: Cell growth inhibition, Cell TiterGLO, 4 days; assay type: cell-based; conditions: Homo sapiens, VCaP, 96 h, treated 4 days, read-out: VCaP cells (IC50 (nM))
MOLM-13 = assay: Cell growth inhibition, CellTiter-Glo, acute leukemia cell line; assay type: cell-based; conditions: Homo sapiens, MOLM-13, 96 h, 4 days
Experimental: (§6) Cell growth inhibitory activity of representative BET bromodomain inhibitors was determined using CellTiter-Glo® Luminescent Cell Viability Assay. For leukemia cell lines MV-4-11 (ATCC, Manassas, Va.) and MOLM-13 (DSMZ, Germany), cells were seeded in 96-well white opaque cell culture plates at a density of 10,000 cells/well with serially diluted compounds and incubated at 37° C. in an atmosphere of 95% air and 5% CO2 for 4 days. Cell viability was determined using the CellTiter-Glo® Luminescent Cell Viability Assay Kit (Promega, Madison, Wis.) according to the manufacture's instruction. Briefly, a volume of CellTiter-Glo® Reagent equal to the volume of cell culture medium was added to each well, and then the plates were incubated at room temperature for 10-20 minutes. The luminescent signal was measured using a Tecan Infinite M1000 multimode microplate reader (Tecan, Morrisville, N.C.). The half maximal inhibitory concentration (IC50) was calculated using the GraphPad Prism 5 software (GraphPad Software, La Jolla, Calif.).

MV-4-11 = assay: as above; assay type: cell-based; conditions: Homo sapiens, MV4-11, 96 h, 4 days
Experimental: as §6

BRD3 BD1 [12] = biological target: T2, BRD3 BD1; assay: FP protein saturation experiment with probe Cpd. No. 350; assay type: binding; conditions: probe 1.5 nM
Experimental: (§7) Fluorescence Polarization (FP) competitive binding studies (see above) were carried out using the FAM labeled fluorescent probe Cpd. No. 350 to determine binding affinities of representative compounds to both BD1 and BD2 of BRD2, BRD3, and BRD4 proteins. Equilibrium dissociation constants (Id) values of Cpd. […] Final Cpd. […] Kd values of Cpd.

BRD4 BD2 [13] = biological target: T1, BRD4 BD2; assay: as above; assay type: binding; conditions: probe 1.5 nM
Experimental: as §7

BRD4 BD1 [14] = biological target: T3, BRD4 BD1; assay: as above; assay type: binding; conditions: probe 1.5 nM
Experimental: as §7

BRD2 BD2 [15] = biological target: T4, BRD2 BD2; assay: as above; assay type: binding; conditions: probe 1.5 nM
Experimental: as §7

BRD3 BD2 [16] = biological target: T5, BRD3 BD2; assay: as above; assay type: binding; conditions: probe 1.5 nM
Experimental: as §7

BRD2 BD1 [17] = biological target: T6, BRD2 BD1; assay: as above; assay type: binding; conditions: probe 1.5 nM
Experimental: as §7

[18] = test system: breast cancer MDA-MB-436 cell line; assay: 4-day cell viability assay, WST; assay type: cell-based; conditions: Homo sapiens, MDA-MB-436, 96 h; 4 days; read-out: Cell Growth Inhibition (IC50 (nM)) MDA-436 Cell Line (WST assay)
Experimental: as §1, §2
For the WST assay, WST-8 reagent was added to each well at a final concentration of 10% (v/v), and then the plates were incubated at 37° C. for 1-2 hours for color development. The absorbance was measured at 450 nm using a SPECTRAmax PLUS plate reader (Molecular Devices, Sunnyvale, Calif.). The readings were normalized to the DMSO-treated cells and the half maximal inhibitory concentration (IC50) was calculated by nonlinear regression (four parameters sigmoid fitted with variable slope, least squares fit, and no constraint) analysis using the GraphPad Prism 5 software (GraphPad Software, La Jolla, Calif.).

[19] = Homo sapiens, MV4-11, cell growth inhibition

T5 sequence (Q15059 306-415): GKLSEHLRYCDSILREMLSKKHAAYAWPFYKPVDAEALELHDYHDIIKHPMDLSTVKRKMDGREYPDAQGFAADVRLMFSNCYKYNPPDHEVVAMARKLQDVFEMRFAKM
T2 sequence (Q15059 34-140): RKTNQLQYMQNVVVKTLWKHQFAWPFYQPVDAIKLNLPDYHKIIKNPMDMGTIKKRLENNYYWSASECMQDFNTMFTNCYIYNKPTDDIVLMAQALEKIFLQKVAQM
T4 sequence (P25440 344-453): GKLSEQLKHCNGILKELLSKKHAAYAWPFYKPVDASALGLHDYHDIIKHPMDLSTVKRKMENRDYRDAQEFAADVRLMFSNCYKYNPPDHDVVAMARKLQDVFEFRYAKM
T6 sequence (P25440 74-180): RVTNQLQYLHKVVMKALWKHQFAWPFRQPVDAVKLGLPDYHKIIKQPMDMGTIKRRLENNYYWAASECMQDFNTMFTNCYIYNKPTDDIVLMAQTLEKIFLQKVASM

Kd (BRD4 BD2 [4]) [nM]	Kd (BRD4 BD1 [5]) [nM]	Kd (BRD2 BD2 [6]) [nM]	Kd (BRD2 BD1 [8]) [nM]	Ki (BRD2 BD1 [9]) [nM]	Ki (BRD2 BD2 [11]) [nM]	IC50 (K562) [nM]	IC50 (AML-2) [nM]	IC50 ([2]; Homo sapiens, MOLM-13, 96 h) [nM]	IC50 (MV4;11; [19]) [nM]	SMILES	Ki (BRD4 BD2 [1]) [nM]	Ki (BRD4 BD1 [10]) [nM]	further results
12.9 ± 2.1	29 ± 8.8	–	25.6 ± 3.7	11.1 ± 1	11.7 ± 3	> 2000	104 ± 5	104 ± 16	17 ± 3	CCc1n[nH]c(CC)c1-c1nccc2[nH]c3cc(-c4c(C)noc4C)c(OC)cc3c12 [Cpd. No. 23, 4-(1-(3,5-diethyl-1H-pyrazol-4-yl)-8-methoxy-5H-pyrido[4,3-b]indol-7-yl)-3,5-dimethylisoxazole]	12.2 ± 1.6	24.7 ± 1	IC50 (prostate VCaP cell line): 117 nM
10.2 ± 4.5	27 ± 14.5	11 ± 4.7	33.8 ± 8.2	–	–	–	–	–	–	COc1cc2c(cc1-c1c(C)noc1C)[nH]c1ncnc(-c3c(C)[nH]c4ccccc34)c12 [Cpd. No. 44]	–	–	IC50 (MOLM-13): < 100 nM; IC50 (MV-4-11): < 100 nM; Kd (BRD3 BD1 [3]; BLI, read-out: Kd (nM) BRD3 BD1): 17 ± 7 nM; Kd (BRD3 BD2 [7]; BLI, read-out: Kd (nM) BRD3 BD2): 10.6 ± 1.1 nM

The next lines start with the compound.

SMILES	Kd (BRD4 BD2 [4]) [nM]	Kd (BRD4 BD1 [5]) [nM]	Kd (BRD2 BD2 [6]) [nM]	Kd (BRD2 BD1 [8]) [nM]	Ki (BRD2 BD1 [9]) [nM]	Ki (BRD2 BD2 [11]) [nM]	IC50 (K562) [nM]	IC50 (AML-2) [nM]	IC50 ([2]; Homo sapiens, MOLM-13, 96 h) [nM]	IC50 (MV4;11; [19]) [nM]	Ki (BRD4 BD2 [1]) [nM]	Ki (BRD4 BD1 [10]) [nM]	further results
COc1cc2c(cc1-c1c(C)noc1C)[nH]c1ccnc(-c3c(C)n[nH]c3C)c12 [Cpd. No. 22, 4-(1-(3,5-dimethyl-1H-pyrazol-4-yl)-8-methoxy-5H-pyrido[4,3-b]indol-7-yl)-3,5-dimethylisoxazole]	27.9 ± 6.8	40 ± 6.4	24.4 ± 6.2	34 ± 2.1	21 ± 3.3	15.4 ± 3.2	> 2000	101 ± 22	–	–	16.1 ± 2.8	44.1 ± 6.4	IC50 [2]: 183 ± 38 nM; Kd (BRD3 BD1 [3]): 17.9 ± 8.8 nM; Kd (BRD3 BD2 [7]): 18.7 ± 4.9 nM; IC50 (MV4;11; cell growth inhibition): 61 ± 28 nM
COc1cc2c(cc1-c1c(C)noc1C)[nH]c1nc(C(=O)NC3CCN(CCCNC(=O)c4ccc(-c5c6ccc(=O)cc-6oc6cc(O)ccc56)c(C(=O)O)c4)CC3)nc(-c3ccnc4ccc(F)cc34)c12 [Cpd. No. 350]	–	–	–	–	–	–	–	–	–	–	–	–	Kd (BRD3 BD1 [12]): 6.5 nM; Kd (BRD4 BD2 [13]): 3 nM; Kd (BRD4 BD1 [14]): 5.5 nM; Kd (BRD2 BD2 [15]): 2.2 nM; Kd (BRD3 BD2 [16]): 0.6 nM; Kd (BRD2 BD1 [17]): 2 nM
COc1cc2c(cc1-c1c(C)noc1C)[nH]c1ccnc(-c3c(C)nn(C)c3C)c12 [Cpd. No. 25, 4-(8-methoxy-1-(1,3,5-trimethyl-1H-pyrazol-4-yl)-5H-pyrido[4,3-b]indol-7-yl)-3,5-dimethylisoxazole]	–	–	35.9 ± 8.8	41.2 ± 2.2	12.2 ± 1.7	22.2 ± 2.8	> 2000	163 ± 2	343 ± 5	65 ± 24	–	–	IC50 [18]: 119 nM
